Several values for one entry are separate records, joined by “and”; a condition that tells them apart may be missing. Equal entries are not always repeated. Where two headings read alike, the source gives them in different places.
Assays:
[1] = 1 μM
[2] = target: T1, A1 (h) (Homo sapiens, UniProt P30542); assay: CEREP panel; type: binding; conditions: for % inhibition A1 (h): 10 µM
T1 construct: CEREP
T1 sequence (P30542 1-326): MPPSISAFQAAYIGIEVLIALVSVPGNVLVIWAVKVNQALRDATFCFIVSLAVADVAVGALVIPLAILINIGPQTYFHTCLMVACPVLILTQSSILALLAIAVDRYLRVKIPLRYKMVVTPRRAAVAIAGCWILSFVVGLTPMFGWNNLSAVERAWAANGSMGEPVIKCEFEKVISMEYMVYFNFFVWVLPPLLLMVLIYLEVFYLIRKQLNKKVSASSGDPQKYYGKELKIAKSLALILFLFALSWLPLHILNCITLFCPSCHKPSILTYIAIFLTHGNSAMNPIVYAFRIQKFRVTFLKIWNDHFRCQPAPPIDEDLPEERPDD

[3] = target: T2, A3 (h) (Homo sapiens, UniProt P0DMS8); assay: CEREP panel; type: binding; conditions: for % inhibition A3 (h): 10 µM
T2 construct: CEREP
T2 sequence (P0DMS8 1-318): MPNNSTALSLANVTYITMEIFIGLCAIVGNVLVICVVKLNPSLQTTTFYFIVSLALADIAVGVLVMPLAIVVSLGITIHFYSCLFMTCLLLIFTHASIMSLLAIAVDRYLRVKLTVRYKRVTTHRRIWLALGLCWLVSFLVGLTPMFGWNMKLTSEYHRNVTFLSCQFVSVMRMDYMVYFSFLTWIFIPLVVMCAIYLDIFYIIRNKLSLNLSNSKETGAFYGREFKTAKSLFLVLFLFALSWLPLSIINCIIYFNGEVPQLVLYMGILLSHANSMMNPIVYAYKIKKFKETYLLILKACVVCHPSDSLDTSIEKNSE

[4] = target: T3, mu (MOP) (h) (Homo sapiens, UniProt P35372); assay: CEREP panel; type: binding; conditions: for % inhibition mu (MOP) (h): 10 µM
T3 construct: CEREP (contract assay)
T3 sequence (P35372 whole entry): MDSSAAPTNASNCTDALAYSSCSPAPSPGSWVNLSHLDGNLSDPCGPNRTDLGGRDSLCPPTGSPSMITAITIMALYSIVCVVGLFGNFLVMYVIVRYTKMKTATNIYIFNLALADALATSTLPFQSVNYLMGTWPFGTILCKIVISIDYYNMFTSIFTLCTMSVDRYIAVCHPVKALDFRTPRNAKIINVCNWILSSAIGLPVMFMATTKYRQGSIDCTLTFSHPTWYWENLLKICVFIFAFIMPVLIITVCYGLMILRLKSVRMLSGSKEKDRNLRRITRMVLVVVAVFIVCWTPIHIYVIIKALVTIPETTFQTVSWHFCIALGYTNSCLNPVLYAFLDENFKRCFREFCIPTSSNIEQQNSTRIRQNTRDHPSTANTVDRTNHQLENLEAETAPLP

[5] = target: T4, Rat recombinant TRPV2 (Rattus norvegicus, UniProt Q9WUD2); assay: cell-based; type: cell-based; conditions: for IC50: vs LPC 3μM, read-out: TRPV2 IC50 for antagonism or desensitization
T4 construct: expressed in transfected cells; host or cells: HEK293 (plasmid a gift from HB Bradshaw, Indiana University)
T4 sequence (Q9WUD2 1-761): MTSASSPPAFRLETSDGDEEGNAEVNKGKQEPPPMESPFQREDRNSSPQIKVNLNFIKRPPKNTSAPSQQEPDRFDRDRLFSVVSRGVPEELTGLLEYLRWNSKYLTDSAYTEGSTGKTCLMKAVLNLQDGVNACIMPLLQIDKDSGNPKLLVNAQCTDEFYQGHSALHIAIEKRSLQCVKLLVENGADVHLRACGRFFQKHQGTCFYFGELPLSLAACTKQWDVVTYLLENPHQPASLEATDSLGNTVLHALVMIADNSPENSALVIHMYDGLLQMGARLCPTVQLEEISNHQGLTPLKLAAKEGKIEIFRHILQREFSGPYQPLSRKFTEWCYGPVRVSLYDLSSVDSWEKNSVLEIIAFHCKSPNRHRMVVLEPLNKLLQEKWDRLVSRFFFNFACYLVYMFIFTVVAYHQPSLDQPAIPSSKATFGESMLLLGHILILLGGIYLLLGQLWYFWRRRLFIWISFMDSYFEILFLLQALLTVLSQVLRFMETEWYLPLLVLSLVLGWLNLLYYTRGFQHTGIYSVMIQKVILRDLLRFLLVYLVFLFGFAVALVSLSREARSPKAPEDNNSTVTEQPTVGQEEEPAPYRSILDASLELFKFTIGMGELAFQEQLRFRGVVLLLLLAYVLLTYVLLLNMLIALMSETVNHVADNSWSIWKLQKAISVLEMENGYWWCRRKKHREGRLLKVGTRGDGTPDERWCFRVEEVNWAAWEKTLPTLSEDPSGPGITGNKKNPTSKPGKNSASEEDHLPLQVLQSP

[6] = i.v., mice; for C0: 1.0-2.0 mg/kg, extrapolated
[7] = target: T5, Human recombinant TRPV1 (Homo sapiens, UniProt Q8NER1); assay: cell-based; type: cell-based; conditions: for EC50: read-out: TRPV1 Potency EC50
T5 construct: expressed in transfected cells; host or cells: HEK293 (TRPV1-HEK-293, gift from John Davis, GlaxoSmithKline)
T5 sequence (Q8NER1 whole entry): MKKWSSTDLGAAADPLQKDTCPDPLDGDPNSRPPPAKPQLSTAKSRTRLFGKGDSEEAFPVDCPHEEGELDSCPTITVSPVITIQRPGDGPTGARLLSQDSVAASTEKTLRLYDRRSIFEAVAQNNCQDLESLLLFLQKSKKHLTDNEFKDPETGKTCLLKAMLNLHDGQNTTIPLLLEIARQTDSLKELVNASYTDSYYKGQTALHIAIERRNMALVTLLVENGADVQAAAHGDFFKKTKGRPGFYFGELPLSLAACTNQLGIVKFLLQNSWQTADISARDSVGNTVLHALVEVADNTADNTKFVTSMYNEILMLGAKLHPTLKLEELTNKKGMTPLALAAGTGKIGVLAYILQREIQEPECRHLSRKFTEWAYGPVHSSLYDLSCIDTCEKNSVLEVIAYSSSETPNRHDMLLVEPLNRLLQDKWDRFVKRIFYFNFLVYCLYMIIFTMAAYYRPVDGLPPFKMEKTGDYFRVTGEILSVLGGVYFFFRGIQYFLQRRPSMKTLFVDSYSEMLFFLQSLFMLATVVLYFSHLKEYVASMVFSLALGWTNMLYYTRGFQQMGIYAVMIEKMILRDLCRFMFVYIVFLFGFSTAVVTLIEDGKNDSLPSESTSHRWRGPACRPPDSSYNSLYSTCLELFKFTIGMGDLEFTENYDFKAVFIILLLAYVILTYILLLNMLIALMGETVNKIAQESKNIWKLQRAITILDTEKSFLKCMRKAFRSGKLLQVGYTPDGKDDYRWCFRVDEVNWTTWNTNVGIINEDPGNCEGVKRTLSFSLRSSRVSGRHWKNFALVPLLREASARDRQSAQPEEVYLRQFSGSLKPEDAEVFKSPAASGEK

[8] = target: T6, hCB1R (Homo sapiens, UniProt P21554); assay: cell-based; conditions: for Emax: read-out: Emax ± SEM cAMP hCB1R
T6 construct: host or cells: CHO
T6 sequence (P21554 whole entry): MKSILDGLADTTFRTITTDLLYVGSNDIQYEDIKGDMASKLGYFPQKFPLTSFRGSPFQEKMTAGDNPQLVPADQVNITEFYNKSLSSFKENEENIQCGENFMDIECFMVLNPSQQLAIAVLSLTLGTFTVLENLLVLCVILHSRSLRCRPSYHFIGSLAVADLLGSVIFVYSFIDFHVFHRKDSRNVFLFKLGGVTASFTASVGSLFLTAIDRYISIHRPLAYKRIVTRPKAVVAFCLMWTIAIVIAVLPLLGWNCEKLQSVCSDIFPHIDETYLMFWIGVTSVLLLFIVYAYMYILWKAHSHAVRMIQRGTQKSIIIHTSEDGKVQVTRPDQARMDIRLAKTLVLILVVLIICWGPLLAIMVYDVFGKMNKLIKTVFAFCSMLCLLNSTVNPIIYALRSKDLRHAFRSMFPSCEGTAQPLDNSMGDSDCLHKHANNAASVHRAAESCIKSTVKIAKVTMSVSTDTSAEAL

[9] = system: Na+ channel (site 2); type: binding; conditions: 10 µM
[10] = target: T7, norepinephrine transporter (h) (Homo sapiens, UniProt P23975); assay: biochemical; type: binding; conditions: for % inhibition norepinephrine transporter (h): 10 µM
T7 construct: CEREP (contract assay)
T7 sequence (P23975 whole entry): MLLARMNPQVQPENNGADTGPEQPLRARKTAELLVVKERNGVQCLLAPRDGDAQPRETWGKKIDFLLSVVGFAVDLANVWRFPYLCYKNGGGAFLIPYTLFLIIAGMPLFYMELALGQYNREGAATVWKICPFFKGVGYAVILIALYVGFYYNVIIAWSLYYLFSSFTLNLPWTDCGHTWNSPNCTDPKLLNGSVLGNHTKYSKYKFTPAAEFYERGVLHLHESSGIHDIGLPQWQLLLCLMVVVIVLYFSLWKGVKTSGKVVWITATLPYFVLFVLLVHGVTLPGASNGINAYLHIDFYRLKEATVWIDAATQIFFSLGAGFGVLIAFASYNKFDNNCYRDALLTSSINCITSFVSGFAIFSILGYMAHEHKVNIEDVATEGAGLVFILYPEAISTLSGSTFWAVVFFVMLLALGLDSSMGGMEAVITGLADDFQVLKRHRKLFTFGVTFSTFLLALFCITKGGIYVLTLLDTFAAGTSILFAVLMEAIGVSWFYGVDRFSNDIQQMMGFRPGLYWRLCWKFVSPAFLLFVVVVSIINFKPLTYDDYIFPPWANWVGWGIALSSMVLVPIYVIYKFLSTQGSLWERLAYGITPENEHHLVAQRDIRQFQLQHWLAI

[11] = target: T8, PPARgamma (h) (Homo sapiens, UniProt P37231); assay: CEREP panel; type: binding; conditions: for % inhibition PPARgamma (h): 10 µM
T8 construct: CEREP (contract assay)
T8 sequence (P37231 1-505): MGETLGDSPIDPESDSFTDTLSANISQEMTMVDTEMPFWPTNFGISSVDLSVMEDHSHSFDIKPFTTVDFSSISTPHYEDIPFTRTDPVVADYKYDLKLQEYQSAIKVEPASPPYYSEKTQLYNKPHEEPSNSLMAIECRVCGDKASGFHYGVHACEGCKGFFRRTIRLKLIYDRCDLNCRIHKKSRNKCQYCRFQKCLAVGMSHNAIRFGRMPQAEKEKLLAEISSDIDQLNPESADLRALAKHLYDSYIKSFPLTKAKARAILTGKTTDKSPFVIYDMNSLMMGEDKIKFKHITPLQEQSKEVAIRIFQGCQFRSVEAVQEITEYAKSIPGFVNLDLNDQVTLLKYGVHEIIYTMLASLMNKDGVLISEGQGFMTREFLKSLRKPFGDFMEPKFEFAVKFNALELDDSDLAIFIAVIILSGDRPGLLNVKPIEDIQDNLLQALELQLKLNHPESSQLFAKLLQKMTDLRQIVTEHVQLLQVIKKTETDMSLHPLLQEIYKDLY

[12] = 1 μM; remark: listed apart in the source
[13] = target: T9, mCB1R (Mus musculus, UniProt P47746); assay: biochemical; type: binding
T9 construct: from tissue; host or cells: brain of male C57BL/6J mice
T9 sequence (P47746 whole entry): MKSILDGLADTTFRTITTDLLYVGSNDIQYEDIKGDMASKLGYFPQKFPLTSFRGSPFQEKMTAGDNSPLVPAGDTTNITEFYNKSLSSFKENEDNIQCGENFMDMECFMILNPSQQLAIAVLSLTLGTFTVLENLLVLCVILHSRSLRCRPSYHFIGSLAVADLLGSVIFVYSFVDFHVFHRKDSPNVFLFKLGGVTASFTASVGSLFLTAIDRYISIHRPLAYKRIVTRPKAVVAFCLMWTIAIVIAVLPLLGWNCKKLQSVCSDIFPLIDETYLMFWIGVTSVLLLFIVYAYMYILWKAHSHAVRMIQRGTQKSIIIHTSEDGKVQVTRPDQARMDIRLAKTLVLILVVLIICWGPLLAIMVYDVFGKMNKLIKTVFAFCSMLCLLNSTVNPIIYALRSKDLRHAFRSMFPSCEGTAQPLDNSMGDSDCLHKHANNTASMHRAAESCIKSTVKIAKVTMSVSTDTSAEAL

[14] = logD distribution coefficient
[15] = target: T10, N muscle-type (h) (Homo sapiens, UniProt P02708+P07510+P11230+Q07001); assay: CEREP panel; type: binding; conditions: 10 µM
T10 construct: CEREP (contract assay)
T10 sequence (P02708 21-457): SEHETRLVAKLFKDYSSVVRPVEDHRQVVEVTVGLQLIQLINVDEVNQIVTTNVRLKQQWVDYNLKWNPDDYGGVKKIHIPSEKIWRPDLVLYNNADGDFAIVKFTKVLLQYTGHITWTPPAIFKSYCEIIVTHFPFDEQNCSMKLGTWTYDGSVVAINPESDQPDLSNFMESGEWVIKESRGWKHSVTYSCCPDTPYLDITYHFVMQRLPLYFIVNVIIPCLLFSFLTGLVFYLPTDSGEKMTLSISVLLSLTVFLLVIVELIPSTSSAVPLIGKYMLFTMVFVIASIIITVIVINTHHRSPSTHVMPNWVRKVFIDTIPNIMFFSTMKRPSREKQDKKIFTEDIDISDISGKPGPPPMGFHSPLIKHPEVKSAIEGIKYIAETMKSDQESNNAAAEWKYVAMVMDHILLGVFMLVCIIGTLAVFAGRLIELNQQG
T10 sequence (P11230 24-501): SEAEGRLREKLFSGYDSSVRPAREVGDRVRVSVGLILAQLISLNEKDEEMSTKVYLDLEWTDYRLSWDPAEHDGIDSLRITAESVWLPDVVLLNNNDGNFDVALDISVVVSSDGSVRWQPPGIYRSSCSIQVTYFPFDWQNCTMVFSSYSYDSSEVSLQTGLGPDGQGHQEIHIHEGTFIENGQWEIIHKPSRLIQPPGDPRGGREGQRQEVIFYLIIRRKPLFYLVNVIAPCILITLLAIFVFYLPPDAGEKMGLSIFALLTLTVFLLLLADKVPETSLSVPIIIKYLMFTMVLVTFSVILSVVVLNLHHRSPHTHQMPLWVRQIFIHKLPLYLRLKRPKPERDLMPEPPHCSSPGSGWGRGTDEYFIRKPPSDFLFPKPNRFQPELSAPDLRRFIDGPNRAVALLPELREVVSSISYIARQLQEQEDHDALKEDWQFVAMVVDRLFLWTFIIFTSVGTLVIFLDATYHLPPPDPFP
T10 sequence (Q07001 22-517): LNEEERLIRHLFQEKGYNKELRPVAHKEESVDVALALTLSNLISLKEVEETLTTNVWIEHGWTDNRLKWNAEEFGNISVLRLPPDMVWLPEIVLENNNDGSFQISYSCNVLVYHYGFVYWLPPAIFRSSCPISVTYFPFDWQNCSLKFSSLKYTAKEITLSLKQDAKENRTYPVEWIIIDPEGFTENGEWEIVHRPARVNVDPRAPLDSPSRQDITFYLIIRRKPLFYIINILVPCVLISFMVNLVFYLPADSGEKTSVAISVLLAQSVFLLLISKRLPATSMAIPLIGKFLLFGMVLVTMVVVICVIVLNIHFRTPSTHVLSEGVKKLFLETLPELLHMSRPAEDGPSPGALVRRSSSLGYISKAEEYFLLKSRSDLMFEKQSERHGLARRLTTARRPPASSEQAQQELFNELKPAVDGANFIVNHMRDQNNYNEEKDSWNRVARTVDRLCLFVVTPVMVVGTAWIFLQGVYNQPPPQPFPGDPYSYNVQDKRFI
T10 sequence (P07510 23-517): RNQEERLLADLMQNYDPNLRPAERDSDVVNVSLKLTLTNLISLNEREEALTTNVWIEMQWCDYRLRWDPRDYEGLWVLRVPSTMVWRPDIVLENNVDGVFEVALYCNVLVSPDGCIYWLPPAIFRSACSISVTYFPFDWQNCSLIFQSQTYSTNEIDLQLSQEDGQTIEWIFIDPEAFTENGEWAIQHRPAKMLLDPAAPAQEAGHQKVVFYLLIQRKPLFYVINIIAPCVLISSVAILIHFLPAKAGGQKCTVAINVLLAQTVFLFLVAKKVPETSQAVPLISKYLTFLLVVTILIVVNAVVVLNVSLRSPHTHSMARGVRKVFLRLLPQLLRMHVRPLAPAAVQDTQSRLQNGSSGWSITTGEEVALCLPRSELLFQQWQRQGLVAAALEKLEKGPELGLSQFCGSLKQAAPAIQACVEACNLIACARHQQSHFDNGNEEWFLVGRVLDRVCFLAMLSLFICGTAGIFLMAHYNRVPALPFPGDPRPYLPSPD

[16] = target: T11, kappa (KOP) (Rattus norvegicus, UniProt P34975); assay: CEREP panel; type: binding; conditions: 10 µM
T11 construct: CEREP (contract assay)

[17] = read-out: TRPV1 IC50 for antagonism or desensitization
[18] = TRPV1 IC50 for antagonism or desensitization

Molecule | CL microsomes mouse [1] [µL/min/mg protein] | % inhibition A1 (h) [2] [%] | % inhibition A3 (h) [3] [%] | % inhibition mu (MOP) (h) [4] [%] | TRPV2 Efficacy (% ionomycin 4μM) [5] [%] | IC50 [5] [µM] | AUCinf [6] [ng·h/mL] | AUCinf/dose [6] [kg·ng·h/mL/mg] | AUClast [6] [ng·h/mL] | CL [6] [mL/min/kg] | T1/2 [6] | C0 [6] [ng/mL] | TRPV1 Efficacy (% ionomycin 4μM) [7] [%] | IC50 [7, 17] [µM] | Emax ± SEM cAMP hCB1R [8] | pEC50 ± SEM cAMP hCB1R [8] | % inhibition Na+ channel (site 2) [9] [%] | % inhibition norepinephrine transporter (h) [10] [%] | % inhibition PPARgamma (h) [11] [%] | CL microsomes human [12] [µL/min/mg protein] | also measured
CCCCCCC(C)(C)c1cc(OC)c(C2=C[C@H]3CC[C@]2(CO)C3(C)C)c(OC)c1 [HU910] | 464 | 23 | 62 | 23 | < 10 | > 100 | 6060 | 6060 | 5960 | 2.83 | 7.4 h and 7 h | 55600 | < 10 | > 100 | 28 ± 8 | < 5 | 5 | 58 | 17 | 90 | pKi ± SEM mCB1R ([13]; mouse brain membranes): 6.14±0.13
CCCC(C)(C)c1ccc2c(c1)OC(C)(C)[C@@H]1CC=C(C)C[C@@H]21 [JWH133] | 63 | -6 | -26 | 7 | < 10 | > 100 | 1750 | 1090 | 1650 | 15.3 | 1.1 h and 1 h | 3870 | 24.6 | 77.7 ± 3 | 37 ± 6 | < 5 | -20 | -9 | -5 | 38 | logD ([14]; distribution coefficient): > 3; Vss [6]: 1.32 L/kg and 1 to 3 L/kg; EC50 [7]: 8.2 µM; pKi ± SEM mCB1R [13]: 6.09 ± 0.13
CN1CCCCC1Cn1cc(C(=O)c2cc([N+](=O)[O-])ccc2I)c2ccccc21 (racemic) [(rac)-AM1241] | 254 |  |  |  |  |  |  |  |  |  |  |  |  |  |  | < 5 |  |  |  | 111 | logD ([14]; distribution coefficient): 3.66±0.03; pKi ± SEM mCB1R [13]: 5.91 ± 0.16
SR144528 |  | 4 | 72 | 11 | < 10 |  |  |  |  |  |  |  | < 10 |  |  |  | 34 | 29 | 31 |  | % inhibition N muscle-type (h) [15]: -3%
Cc1ccc2c(c1)Cc1c(C(=O)NN3CCCCC3)nn(-c3ccc(Cl)cc3Cl)c1-2 [Gp-1a] | 134 | 25 | 95 | 102 | < 10 | 11.9 | 825 | 412 | 658 | 40 | 3.5 h | 351 | < 10 | 3 ± 0.1 | 19 ± 5 | < 5 | 40 | 59 | 86 | 13 | % inhibition kappa (KOP) [16]: 99%; pKi ± SEM mCB1R ([13]; mouse brain membranes): 6.37 ± 0.08
CCCCC/C=C\C/C=C\C/C=C\C/C=C\CCCC(=O)OC(CO)CO [2-AG, 2-arachidonoyl glycerol] |  |  |  |  |  |  |  |  |  |  |  |  |  |  |  |  |  |  |  |  | Emax [8]: < 70%; Ki ([13]; mouse brain membranes, read-out: pKi ± SEM mCB1R (converted)): 0.102 µM
CN1CCCC[C@@H]1Cn1cc(C(=O)c2cc([N+](=O)[O-])ccc2I)c2ccccc21 [(R)-AM1241] | 314 |  |  |  | 14.5 | 35.5 |  |  |  |  |  |  | 10.7 | > 50 | 54 ± 7 | 6.17 ± 0.12 |  |  |  | 304 | logD ([14]; distribution coefficient): 3.66; EC50 ([5]; read-out: TRPV2 Potency EC50): 12 µM; EC50 [7]: > 50 µM; pKi ± SEM mCB1R ([13]; mouse brain membranes): 6.36 ± 0.13
CCCCCCC(C)(C)c1cc(OC)c([C@@H]2C=C(CO)[C@@H]3C[C@H]2C3(C)C)c(OC)c1 [HU308] |  |  |  |  | < 10 | > 100 |  |  |  |  |  |  | < 10 |  |  |  | 30 |  |  |  | inhibition at 10 µM ([2]; read-out: % inhibition A1 (h)): 5%; inhibition at 10 µM ([3]; read-out: % inhibition A3 (h)): -1%; inhibition at 10 µM ([4]; read-out: % inhibition mu (MOP) (h)): 7%; logD [14]: 4.29; IC50 [7, 18]: 69 ± 5.7 µM; EC50 ([8]; pEC50 ± SEM cAMP hCB1R): > 10 µM; Emax [8]: 18 ± 4%; inhibition at 10 µM ([10]; read-out: % inhibition norepinephrine transporter (h)): 33%; inhibition at 10 µM ([11]; read-out: % inhibition PPARgamma (h)): 14%; Ki [13]: 0.832 µM
Cc1c(C(=O)NN2CCCCC2)nn(-c2ccc(Cl)cc2Cl)c1-c1ccc(I)cc1 [AM251] |  | 27 | 93 | 93 | < 10 |  |  |  |  |  |  |  |  |  |  |  |  |  | 55 |  | % inhibition kappa (KOP) [16]: 94%; % inhibition N muscle-type (h) [15]: 12%
Cc1c(C(=O)NN2CCCCC2)nn(-c2ccc(Cl)cc2Cl)c1-c1ccc(Cl)cc1 [SR141716A] |  |  |  |  | < 10 | > 100 |  |  |  |  |  |  | 17.5 |  |  |  |  |  |  |  | IC50 [7, 18]: 33.7 µM and 11.5 µM; EC50 [7]: 12 µM
